As usually defined, the IC50 is the concentration needed to halve the response being measured.

Assay [1] has as its target γ-secretase (Mus musculus (Mouse), UniProt P49769). Briefly: Cell-based activity assay, N2A cells stably over-expressing APP. Here is the method:
The potency of two structurally different GSIs was assayed in four unique γ-secretase activity assays. IC50 values were determined from the dose response curves using a non-linear regression analysis in the Prism software. An in vitro assay was based on the one previously reported by Li et al. (2000), except we utilized Sb4 substrate that eliminated the need for biotinylated antibody. The cell-based activity assay used N2A mouse neuroblastoma cells stably over-expressing APP and a biotinylated 4G8 antibody that binds the C-terminus of the amyloid beta peptide. The exo-cell assay incubated HeLa cells simultaneously with GSI, Sb4 substrate as well as 0.25% CHAPSO detergent prior to detecting substrate cleavage. Finally, the extended exo-cell assay first incubated HeLa cells with GSI for 24 hrs. Subsequently, the cells were washed 1× in PBS and then incubated with Sb4 substrate and CHAPSO detergent. The assay was then carried out exactly as described for the original exo-cell method. All assays incorporate ruthenylated G2-10* antibody to detect 40-site cleavage of APP or recombinant Sb4 substrate and quantitated activity by measuring ECL. The latter assays were performed as previously described (Li et al., 2000). In the in vitro assay, recombinant Sb4 substrate was incubated for 2.5 hours at 37° C. in pH 7.0 PIPES buffer in the presence of 0.25% CHAPSO detergent and solubilized γ-secretase at a final concentration of 40 ng/ul. The detection of cleaved substrate was determined using ruthenylated G2-10* antibody. Since the Sb4 substrate is biotinylated additional 6E10 biotinylated antibody used in earlier assays is not required. In the cell-based assay, N2A mouse neuroblastoma cells that stably overexpress amyloid precursor protein were incubated with γ-secretase inhibitors in a final concentration of 1% DMSO for 24 hrs. Following incubation, the supernatant was removed from the cells and assayed for Aβ40, the cleaved APP product, using ruthenylated G2-10* antibody as well as biotinylated 4G8 antibody.

Assay [2] addresses T1, γ-secretase (Homo sapiens (Human), UniProt P49768). Put plainly: In vitro γ-secretase assay, solubilized γ-secretase, ECL. Format: biochemical. To be noted: Sb4 substrate.
Source text: The γ-secretase cleaved Aβ product derived from C100Flag substrate was detected by a pair of antibodies (biotinylated 4G8 and ruthenylated G2-10*) while Sb4 cleaved product was detected by ruthenylated G2-10* alone (FIG. 10a) and quantified using electrochemiluminescence (ECL) technology.
An in vitro assay was based on the one previously reported by Li et al. (2000), except we utilized Sb4 substrate that eliminated the need for biotinylated antibody. […] All assays incorporate ruthenylated G2-10* antibody to detect 40-site cleavage of APP or recombinant Sb4 substrate and quantitated activity by measuring ECL.
In assay [3] the target is T1, γ-secretase. Put plainly: HTRF γ-secretase assay with Sb4 substrate. It is filed as biochemical. The source says:
We set out to transfer the assay conditions obtained with the ECL method to an HTRF detection based format (FIG. 10b). The HTRF detection mixture consisted of mouse G2-10 antibody for recognition of the C-terminal epitope of the cleaved product, a Europium-labeled anti-mouse antibody (commonly, an antibody is conjugated with a cryptate ligand that forms a three dimensional coordination cage structure surrounding a lanthanide such as Eu^3+), along with Streptavidin conjugated to a trimeric form of the fluorescent protein allophycocyanin referred to as XL665. Cleavage of Sb4 substrate allows G2-10 mouse antibody to bind to the Aβ40-processed site on the cleaved substrate. The Steptavidin-XL665 conjugate binds directly with the biotin moiety on the N-terminal end of the Sb4 derived product. The anti-mouse Europium antibody targets to the G2-10 antibody, bringing all of these entities into close proximity. The Europium and XL665 reagents are a compatible pair of donor-acceptor fluorophores, and excitation of Europium at 337 nm results in fluorescence energy resonance transfer (FRET) to XL665 which fluoresces at 665 nm (FIG. 10b).
Human γ-secretase was prepared from HeLa cell membranes as described previously (Li et al., 2000). Briefly, HeLa cell pellet was resuspended in 1×MES buffer (50 mM MES, pH 6.0, 150 mM KCl, 5 mM CaCl2, 5 mM MgCl2) and treated with ‘complete’ protease inhibitor (Boehringer Mannheim). The resuspended pellet was mechanically homogenized by passing the cells through the French Press (Spectronic Instruments), and subsequently spun down at 800 g to remove cell debris and nuclei. Next, the supernatants were spun at 100,000 g in order to pellet the membranes. The pelleted membranes were resuspended in 1×MES buffer to approximately 12 mg/ml. This entire procedure was performed at 4° C. HeLa membranes were solubilized using 1% CHAPSO detergent in 1×MES buffer with protease inhibitors. After incubating for 1 hr at 4° C., the membrane was spun down at 100,000 g and the supernatants were collected and stored at −70° C. The collected fraction is defined as solubilized γ-secretase.
HTRF conditions were initially optimized in a 384-well format using a final volume of 20 μl. The high control for this assay was defined as the observed γ-secretase activity in the presence of 1% DMSO (v/v) and the low control as the activity observed when including 100 nM final concentration of Compound E (v/v). First, we determined a tolerable DMSO concentration that would not interfere with γ-secretase activity. Even with 3% DMSO (v/v) present in the assay mixture, there was virtually no effect on the γ-secretase activity (FIG. 11a), which was critical as delivery of library screening compounds required a final concentration of 2% DMSO (v/v) in the γ-secretase reaction. Next, we titrated the HTRF mixture components in an effort to minimize reagent costs for use in high throughput screening. […] Additionally, we varied Europium conjugated anti-mouse antibody and determined that 1 nM of this reagent in the HTRF mixture was sufficient for our assay conditions even though the signal continued to increase with higher concentrations of the anti-mouse antibody (FIG. 11c).
We have further miniaturized the HTRF assay from the established 384-well format to a 1536-well platform enabling more efficient screening of large chemical libraries. […] Based on these optimization experiments, we set our final assay conditions at 0.3 nM G2-10, 1 nM anti-mouse antibody, 15 nM Streptavidin-XL665, and proceeded with the assay at 10 μl final volume (5 μl γ-secretase mix+5 μl HTRF mix) in the 1536-well format for screening.
The pilot assay was performed in duplicate on two separate days to account for any day-to-day variability. […]
In general terms: TR-FRET usually uses a lanthanide donor and a delayed reading to cut background.

Where two headings read alike, the source gives them in different places.

`CC(NC(=O)Cc1cc(F)cc(F)c1)C(=O)NC1N=C(c2ccccc2)c2ccccc2N(C)C1=O` (stereo not shown) [Compound E]: the IC50 on γ-secretase [1] (24 hrs, Aβ40; read-out: Cell-based (nM), IC50) was 4.6 nM; at γ-secretase [1] (read-out: Cell-based (nM), IC50; 24 hrs, Aβ40), 4.6 nM; against γ-secretase [2], 1.2 nM; on γ-secretase [3], 1.1 nM.

Source of the values: US9023767B2, “γ-Secretase substrates and methods of use” (Memorial Sloan-Kettering Cancer Center, priority 2009, dated 2015).
